Experimental findings from PubChem BioAssay AID1963835 (Molecular Pharmacology Branch, DTP, NCI, 2024) are described below.

The test concerns 699152-130-R-J1-PDC complex spheroid viability. Description: Anticancer human tumor 699152-130-R-J1-PDC patient-derived pancreatic carcinoma cell line growth inhibition [POLQ]. The conditions noted are these: for viability, T/C: stronger effect = lower value. The method in brief: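 Complex spheroid viability model combining PDC tumour cells with endothelial (HUVEC) and MSC stromal cells. Novobiocin, ART-558 or RP6685 were tested singly and in combination with standard and investigational anticancer drugs. Each was titrated in half-log steps from near clinical Cmax, or from 10 microM where Cmax was unknown.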

Values joined by “and” are separate entries in the source; they are usually repeats but may differ in a detail not shown here. Equal entries are not always repeated. Some results are limits rather than exact numbers.
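Further: spheroids exposed to agents for 7 days before viability reading.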
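Wherever viability, T/C is given: percent of DMSO vehicle control viability so 100% = vehicle and 0% = no viable signal.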

Take `Nc1ccn(C2OC(CO)C(O)C2(F)F)c(=O)n1` (centres undefined) + Cc1cccc(N(C)C(=O)C2C(O)CCN2c2nc(C)cc(C(F)(F)F)c2C#N)c1: the IC50 is 958 nM (curve of first compound, second compound 0.0316 µM); 408 nM (curve of first compound, second compound 0.1 µM); 468 nM (curve of first compound, second compound 0.316 µM); 1240 nM (curve of first compound, second compound 1 µM); 2050 nM (curve of first compound, second compound 3.16 µM); 3290 nM (curve of first compound, second compound 10 µM). Moreover, the viability, T/C was 70.1% (second compound 0.0316 µM, first compound 0.0316 µM); 57% (second compound 0.0316 µM, first compound 0.1 µM); 53.7% (second compound 0.0316 µM, first compound 0.316 µM); 52.5% (second compound 0.0316 µM, first compound 1 µM); 48% (second compound 0.0316 µM, first compound 3.16 µM); 39% (second compound 0.0316 µM, first compound 10 µM). The viability, T/C by setting is: (second compound 0.1 µM, first compound 0.0316 µM) 75%; (second compound 0.1 µM, first compound 0.1 µM) 58.9%; (second compound 0.1 µM, first compound 0.316 µM) 50.3%; (second compound 0.1 µM, first compound 1 µM) 48.8%; (second compound 0.1 µM, first compound 3.16 µM) 45%; (second compound 0.1 µM, first compound 10 µM) 44.7%. Further, the viability, T/C was 75% (second compound 0.316 µM, first compound 0.0316 µM); 62.3% (second compound 0.316 µM, first compound 0.1 µM); 49.6% (second compound 0.316 µM, first compound 0.316 µM); 44.6% (second compound 0.316 µM, first compound 1 µM); 51.6% (second compound 0.316 µM, first compound 3.16 µM); 37.9% (second compound 0.316 µM, first compound 10 µM). The viability, T/C was 74% (second compound 1 µM, first compound 0.0316 µM); 55.3% (second compound 1 µM, first compound 0.1 µM); 60.9% (second compound 1 µM, first compound 0.316 µM); 52.6% (second compound 1 µM, first compound 1 µM); 44.8% (second compound 1 µM, first compound 3.16 µM); 42.1% (second compound 1 µM, first compound 10 µM). For the same molecule, the viability, T/C was 72.9% (second compound 3.16 µM, first compound 0.0316 µM); 63.3% (second compound 3.16 µM, first compound 0.1 µM); 57.9% (second compound 3.16 µM, first compound 0.316 µM); 55% (second compound 3.16 µM, first compound 1 µM); 45.6% (second compound 3.16 µM, first compound 3.16 µM); 46.5% (second compound 3.16 µM, first compound 10 µM). Besides, the viability, T/C (second compound 10 µM, first compound 0.0316 µM) is 76.4%; the viability, T/C (second compound 10 µM, first compound 0.1 µM) was 63.5%; the viability, T/C (second compound 10 µM, first compound 0.316 µM) is 56.6%; the viability, T/C (second compound 10 µM, first compound 1 µM) is 59.5%; the viability, T/C (second compound 10 µM, first compound 3.16 µM) was 53.6%; the viability, T/C (second compound 10 µM, first compound 10 µM) is 42.6%.
Take `C#Cc1c(F)ccc2cc(O)cc(-c3ncc4c(N5CC6CCC(C5)N6)nc(OCC56CCCN5CC(F)C6)nc4c3F)c12` (centres undefined): the viability, T/C is, setting by setting: (compound 0.0316 µM) 24.6% and 29.7% and 27.3%; (compound 0.1 µM) 19.7% and 18.3% and 19.8%; (compound 0.316 µM) 18.1% and 15.8% and 16.3%; (compound 1 µM) 15% and 13.9% and 15.6%; (compound 3.16 µM) 14.4% and 11.4% and 13.7%; (compound 10 µM) 12.7% and 13.8% and 11%. Besides, the IC50 (curve of compound) is < 31.6 nM.
As for `O=C(c1cc(Cc2n[nH]c(=O)c3ccccc23)ccc1F)N1CCN(C(=O)C2CC2)CC1`, the viability, T/C is, setting by setting: (compound 0.0316 µM) 101% and 104% and 103%; (compound 0.1 µM) 99.6% and 92.1% and 91.6%; (compound 0.316 µM) 100% and 98% and 95.9%; (compound 1 µM) 93.5% and 90.7% and 103%; (compound 3.16 µM) 91.4% and 87.8% and 91.5%; (compound 10 µM) 71.4% and 59.8% and 88.3%. In addition, the half-maximal inhibitory concentration (IC50) (curve of compound) is > 10000 nM.
Take `CCc1cc2c(N3CCc4c(cc(Cn5ccnc5)cc4-c4cn(C)nc4C(F)(F)F)C3=O)ccnc2c(OC)n1`: the viability, T/C by setting is: (compound 0.0316 µM) 88.3% and 83.8% and 90.8%; (compound 0.1 µM) 81.6% and 90.7% and 76.9%; (compound 0.316 µM) 86.3% and 93.2% and 101%; (compound 1 µM) 102% and 81.5% and 103%; (compound 3.16 µM) 99.5% and 98.2% and 112%; (compound 10 µM) 89% and 94.7% and 88.3%. Further, the IC50 (curve of compound) was > 10000 nM.
Regarding `COc1ccc([C@@H](O)c2cc(-c3ncnc4cc(N5CCOCC5)ccc34)c(F)cc2Cl)nn1`, the viability, T/C (compound 0.0316 µM) was 111% and 87.9% and 88.4%; the viability, T/C (compound 0.1 µM) is 96.7% and 92.9% and 106%; the viability, T/C (compound 0.316 µM) was 94.5% and 88.7% and 79.7%; the viability, T/C (compound 1 µM) is 84.6% and 77.3% and 75%; the viability, T/C (compound 3.16 µM) is 49.6% and 50.5% and 60.4%; the viability, T/C (compound 10 µM) was 23.9% and 19.9% and 19.4%. Further, the IC50 (curve of compound) is 3410 nM and 3190 nM and 3960 nM.
With `O=c1[nH]cc(F)c(=O)[nH]1`, the viability, T/C runs as follows: (compound 0.0316 µM) 91.8% and 111% and 102%; (compound 0.1 µM) 130% and 91.7% and 100%; (compound 0.316 µM) 96.3% and 108% and 117%; (compound 1 µM) 101% and 114% and 94%; (compound 3.16 µM) 108% and 92.4% and 91%; (compound 10 µM) 70.4% and 70.2% and 62.4%. In addition, the IC50 (curve of compound) was > 10000 nM.
With `C=CCn1c(=O)c2cnc(Nc3ccc(N4CCN(C)CC4)cc3)nc2n1-c1cccc(C(C)(C)O)n1`, the viability, T/C was 103% and 97% and 105% (compound 0.00316 µM); 104% and 91.6% and 100% (compound 0.01 µM); 88.6% and 89.3% and 105% (compound 0.0316 µM); 96.8% and 92.2% and 110% (compound 0.1 µM); 90.3% and 78.7% and 84.2% (compound 0.316 µM); 74.6% and 69.8% and 72.5% (compound 1 µM). The IC50 (curve of compound) was > 1000 nM.

Usually IC50 stands for the point on the concentration scale where inhibition reaches its midpoint. What is called viability, T/C is the ratio of treated to control.
